Experimental data taken from US20240325321A1, “COMPOSITIONS AND METHODS FOR INHIBITING PLpro PROTEASE ACTIVITY AND FOR PREVENTING AND TREATING SARS-CoV-2 INFECTION” (Arizona Board of Regents on Behalf of the University of …, priority 2022, published 2024).
Like-named read-outs stand apart in the source and are kept apart here.

How the values were obtained:
SARS-CoV-2 PL^pro = SARS-CoV-2 PL^pro (Severe acute respiratory syndrome coronavirus 2, UniProt P0DTD1); experiment: biochemical; format: biochemical
M^pro = molecular target: T1, M^pro (Severe acute respiratory syndrome coronavirus 2, UniProt P0DTD1); experiment: biochemical
T1 construct: the main protease (M^pro)

SARS-CoV-2 [1] = experiment: SARS-CoV-2 antiviral assay in Caco2-hACE2 cells; format: cell-based; details: Severe acute respiratory syndrome coronavirus 2
[2] = Cytotoxicity in Calu-3 cells; details: human
SARS-CoV-2 [3] = experiment: SARS-CoV-2 antiviral assay in Vero E6 cells; format: cell-based; details: Severe acute respiratory syndrome coronavirus 2, Vero C1008
[4] = Cytotoxicity in Vero E6 cells; details: African green monkey
in vitro = details: African green monkey
SARS-CoV-2 [5] = experiment: SARS-CoV-2 antiviral assay in Huh7-ACE2 cells; format: cell-based; details: Severe acute respiratory syndrome coronavirus 2
[6] = FRET assay, read-out: SARS-CoV-2 PL^pro IC50

SMILES	IC50 (SARS-CoV-2 PL^pro) [µM]	IC50 (SARS-CoV-2 PL^pro; [6]) [µM]	further results
CC(C1CCCCC1)N(C)Cc1cc(O)ccc1Cl (stereo not shown) [Jun9-13-6]	> 20	–	–
COc1ccc(Cl)c(CN(C)[C@H](C)c2ccccc2C)c1 [Jun9-25-4]	–	49.3	–
C[C@@H](NC(=O)c1cc(O)ccc1Cl)c1cccc2ccccc12 [Jun9-47-2]	–	6.72	IC50 (M^pro): > 20 µM
C[C@H](c1cccc2ccccc12)N(C)Cc1ccc(O)cc1 [Jun9-44-3]	–	–	SARS-CoV-2 PL^pro inhibition, in words (SARS-CoV-2 PL^pro): highly potent; EC50 (SARS-CoV-2 [1]): 8.32 µM; CC50 [2]: 27.7 µM; EC50 (SARS-CoV-2 [3]): 11.2 µM
C[C@H](c1cccc2ccccc12)N(C)Cc1cc(N)ccc1Cl [Jun9-53-1]	–	2.71	IC50 (M^pro): > 20 µM
CC(c1cccc(O)c1)N(C)Cc1cc(O)ccc1Cl (stereo not shown) [Jun9-29-6]	–	26.9	–
CCN(Cc1cc(O)ccc1Cl)c1cccc(C)c1C [Jun9-13-5]	> 20	–	–
C[C@H](c1cccc2ccccc12)N(C)Cc1ccc2c(c1)COC2=O [Jun9-85-7]	–	6.41	–
C[C@H](c1cccc2ccccc12)N(C)Cc1cnn(C)c1 [ZX-136-3]	–	10.1	–
CC(C1CC(F)CCC1F)N(C)Cc1cc(O)ccc1Cl (stereo not shown) [Jun9-29-5]	–	> 20	–
Cc1ccc(N)cc1CN(C)[C@H](C)c1cccc2ccccc12 [Jun9-53-2]	–	–	SARS-CoV-2 PL^pro inhibition, in words (SARS-CoV-2 PL^pro): highly potent; EC50 (SARS-CoV-2 [1]): 8.89 µM; IC50 (M^pro): > 20 µM; CC50 [4]: 25.7 µM; EC50 (SARS-CoV-2 [3]): 25.2 µM
CC(c1ccccc1F)N(C)Cc1cc(O)ccc1Cl (stereo not shown) [Jun9-29-7]	–	42.9	–
C[C@H](c1cccc2ccccc12)N(C)Cc1ccc(OCC(N)=O)nc1 [Jun9-85-4]	–	2.84	–
CC(C)c1ccccc1N(C)Cc1cc(O)ccc1Cl [Jun9-29-3]	> 20	–	–
C[C@H](c1cccc2ccccc12)N(C)Cc1cnc(N)cc1N [Jun9-84-7]	–	5.62	–
C[C@H](c1cccc2ccccc12)N(C)Cc1cccnc1 [ZX-136-2]	–	9.29	–
Cc1ccc(S(N)(=O)=O)cc1C(=O)N(C)C(C)c1ccc(Cl)c2ccccc12 (stereo not shown) [Jun 10-69-2]	–	–	SARS-CoV-2 PL^pro inhibition, in words (SARS-CoV-2 PL^pro): highly potent
C[C@H](c1cccc2ccccc12)N(C)Cc1cncn1C [ZX-136-5]	–	8.32	–
C[C@H](c1cccc2ccccc12)N(C)Cc1cnccn1 [ZX-136-9]	> 20	–	–
COc1ccc(Cl)c(CN(C)[C@H](C)c2cccc3ccccc23)c1 [Jun9-26-5]	> 20	–	–

SMILES	IC50 (SARS-CoV-2 PL^pro) [µM]	IC50 (SARS-CoV-2 PL^pro; [6]) [µM]	further results
Cc1ccccc1CN(C)Cc1cc(O)ccc1Cl [Jun9-26-2]	> 20	–	–
C[C@H](c1cccc2ccccc12)N(C)Cc1ccc2cccc(O)c2c1 [Jun9-85-8]	–	> 20	–
Cc1ccc(C(C)N(C)Cc2cc(O)ccc2Cl)cc1 (stereo not shown) [Jun9-13-8]	–	71.8	–
C[C@H](c1ccc(Cl)cc1)N(C)Cc1cc(O)ccc1Cl [Jun9-13-4]	> 20	–	–
C[C@H](c1cccc2ccccc12)N(C)Cc1ccc(-n2cccc2)cc1 [ZX-136-4]	> 20	–	–
C[C@H](c1cccc2ccccc12)N(C)Cc1ccc(O)cc1Cl [Jun9-87-3]	–	–	SARS-CoV-2 PL^pro inhibition, in words (SARS-CoV-2 PL^pro): highly potent; CC50 (in vitro): 26 µM
Cc1cc(O)ccc1CN(C)[C@H](C)c1cccc2ccccc12 [Jun9-87-2]	–	–	SARS-CoV-2 PL^pro inhibition, in words (SARS-CoV-2 PL^pro): highly potent; CC50 (in vitro): 61 µM
CC1CCCCC1N(C)Cc1cc(O)ccc1Cl (stereo not shown) [Jun9-29-1]	> 20	–	–
C[C@H](c1cccc2ccccc12)N(C)Cc1n[nH]c2cccc(O)c12 [Jun9-86-7]	> 20	–	–
C[C@H](c1cccc2ccccc12)N(C)C(=O)c1nccnc1N [ZX-129]	–	> 20	IC50 (M^pro): > 20 µM
Oc1ccc(Cl)c(CN2CCc3ccccc3C2)c1 [Jun9-44-5]	> 20	–	–
C[C@H](c1cccc2ccccc12)N(C)Cc1ccnc(O)c1 [Jun9-84-6]	> 20	–	–
Cc1ccccc1[C@@H](C)N(C)Cc1cc(O)ccc1Cl [Jun9-25-5]	–	–	CC50 [4]: 38.8 µM; EC50 (SARS-CoV-2 [5]): 3.1 µM
C[C@H](c1cccc2ccccc12)N(C)Cc1ccc2c(c1)NC(=O)CO2 [Jun9-86-3]	–	7.01	–
CN(Cc1cc(O)ccc1Cl)Cc1c(Cl)cccc1Cl [Jun9-29-4]	> 20	–	–
Cc1cc(O)cc(C)c1CN(C)[C@H](C)c1cccc2ccccc12 [Jun9-86-6]	–	0.37	–
C[C@H](c1cccc2ccccc12)N(C)Cc1cc(O)ccc1Cl [Jun9-28-6]	–	2.66	IC50 (M^pro): > 20 µM; EC50 (SARS-CoV-2 [5]): 5.17 µM
C[C@H](c1cccc2ccccc12)N(C)Cc1cnc2c(O)cccn12 [ZX-136-10]	–	14.3	–
Cc1ccc(N)cc1C(=O)N[C@H](C)c1cccc2ccccc12 [GRL0617, reference compound]	–	–	EC50 (SARS-CoV-2 [1]): 25.1 µM; EC50 (SARS-CoV-2 [3]): 74.4 µM; EC50 (SARS-CoV-2 [5]): 20.2 µM
Cc1ccc(O)cc1C(=O)N[C@H](C)c1cccc2ccccc12 [Jun9-47-3]	–	2.44	IC50 (M^pro): > 20 µM
